Results as given in PubChem BioAssay (NCI).
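Compound exposure: 48 hours, 5 concentrations, 96-well plates. At the GI50, growth is halved. TGI marks complete inhibition of growth.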

Legend:
Assay in all cases: NCI-60 cell line screen, 48 h
DMS 114 small cell lung = system: DMS 114 small cell lung
DMS 273 small cell lung = system: DMS 273 small cell lung
HOP-18 NSCLC = system: HOP-18 NSCLC
KM12 colon = system: KM12 colon
LXFL 529 NSCLC = system: LXFL 529 NSCLC
M19-MEL melanoma = system: M19-MEL melanoma
NCI-H522 lung = system: NCI-H522 lung
RXF 393 renal = system: RXF 393 renal
SNB-78 CNS = system: SNB-78 CNS
XF 498 CNS = system: XF 498 CNS
BT-549 breast = system: BT-549 breast
MCF7 breast = system: MCF7 breast
T-47D breast = system: T-47D breast
RXF-631 renal = system: RXF-631 renal

`O=[N+]([O-])c1cccc(C=NC23CC4CC(CC(C4)C2)C3)c1` was tested, and the TGI (DMS 114 small cell lung) was over 100 µM, the TGI (DMS 273 small cell lung) was over 100 µM and the TGI (HOP-18 NSCLC) was over 100 µM. It also gave a TGI (KM12 colon) of over 100 µM, a TGI (LXFL 529 NSCLC) of over 100 µM and a TGI (M19-MEL melanoma) of over 100 µM. For the same compound, the TGI (NCI-H522 lung) was over 100 µM, the TGI (RXF 393 renal) was over 100 µM and the TGI (SNB-78 CNS) was over 100 µM. The TGI (XF 498 CNS) was over 100 µM.
Compound `COc1ccc(-c2nc(Nc3ccc(F)cc3)nc(Nc3ccc4c(c3)nc(C)n4Cc3ccccc3)n2)cc1` has a GI50 (BT-549 breast) of 3.52 µM, a TGI (BT-549 breast) of over 100 µM and a GI50 (KM12 colon) of 3.55 µM. The TGI (KM12 colon) was 33.8 µM, the GI50 (MCF7 breast) was 3.14 µM and the TGI (MCF7 breast) was over 100 µM. It also gave a GI50 (NCI-H522 lung) of 5.92 µM, a TGI (NCI-H522 lung) of over 100 µM and a GI50 (RXF 393 renal) of 2.53 µM. The TGI (RXF 393 renal) was 9.54 µM, the GI50 (T-47D breast) was 2.42 µM and the TGI (T-47D breast) was 44.2 µM.
Compound `N#C/C(=C\c1ccc([N+](=O)[O-])cc1)n1nnc2cc(F)c(F)cc21` has a GI50 (BT-549 breast) of 1.77 µM, a TGI (BT-549 breast) of 4.17 µM and a GI50 (KM12 colon) of 2.02 µM. For the same compound, the TGI (KM12 colon) was 4.39 µM, the GI50 (MCF7 breast) was 1.29 µM and the TGI (MCF7 breast) was 3.4 µM. It also gave a GI50 (NCI-H522 lung) of 1.66 µM, a TGI (NCI-H522 lung) of 3.79 µM and a GI50 (RXF 393 renal) of 1.04 µM. For the same compound, the TGI (RXF 393 renal) was 2.39 µM, the GI50 (T-47D breast) was 1.09 µM and the TGI (T-47D breast) was 2.74 µM.
`CC(C)[C@]12O[C@H]1[C@@H]1O[C@]13[C@]1(O[C@H]1C[C@H]1C4=C(CC[C@@]13C)C(=O)OC4)[C@@H]2OC(=O)OC(C)(C)C` gave a GI50 (BT-549 breast) of 0.0172 µM, a TGI (BT-549 breast) of 0.0616 µM and a GI50 (KM12 colon) of 0.116 µM. For the same compound, the TGI (KM12 colon) was 3.41 µM, the GI50 (MCF7 breast) was under 0.0144 µM and the TGI (MCF7 breast) was over 100 µM. For the same compound, the GI50 (NCI-H522 lung) was 0.0137 µM, the TGI (NCI-H522 lung) was 0.0635 µM and the GI50 (RXF 393 renal) was under 0.0118 µM. For the same compound, the TGI (RXF 393 renal) was 0.0286 µM, the GI50 (T-47D breast) was 0.027 µM and the TGI (T-47D breast) was over 100 µM.
`COc1ccc(/C=C/C(=O)c2ccc(B(O)O)cc2)cc1O` was tested, and the GI50 (BT-549 breast) was 6.8 µM, the TGI (BT-549 breast) was 20.1 µM and the GI50 (KM12 colon) was 3.96 µM. For the same compound, the TGI (KM12 colon) was 15 µM, the GI50 (MCF7 breast) was 3.48 µM and the TGI (MCF7 breast) was 32.5 µM. The GI50 (NCI-H522 lung) was 17.8 µM, the TGI (NCI-H522 lung) was 45.1 µM and the GI50 (RXF 393 renal) was 11.5 µM. The TGI (RXF 393 renal) was 39.6 µM, the GI50 (T-47D breast) was 13.5 µM and the TGI (T-47D breast) was 50.9 µM.
For `CN(CC(=O)O)S(=O)(=O)c1ccc(Cl)cc1`, the TGI (DMS 273 small cell lung) was over 100 µM, the TGI (HOP-18 NSCLC) was over 100 µM and the TGI (KM12 colon) was over 100 µM. For the same compound, the TGI (LXFL 529 NSCLC) was over 100 µM, the TGI (M19-MEL melanoma) was over 100 µM and the TGI (NCI-H522 lung) was over 100 µM. For the same compound, the TGI (RXF 393 renal) was over 100 µM and the TGI (XF 498 CNS) was over 100 µM.
`O=C(O)c1cc(C(=O)C(=O)c2cc(C(=O)O)c(O)c3ccccc23)c2ccccc2c1O` was tested, and the TGI (BT-549 breast) was over 100 µM, the TGI (KM12 colon) was over 100 µM and the TGI (MCF7 breast) was over 100 µM. It also gave a TGI (NCI-H522 lung) of over 100 µM, a TGI (RXF 393 renal) of over 100 µM and a TGI (T-47D breast) of over 100 µM.
Compound `CC12OC(C(=O)C13CC3)C1C(=O)c3cccc(O)c3C(=O)C12` (centres undefined) has a GI50 (BT-549 breast) of 19.1 µM, a TGI (BT-549 breast) of 58.1 µM and a GI50 (KM12 colon) of 13.8 µM. The TGI (KM12 colon) was 38.1 µM, the GI50 (MCF7 breast) was 14.3 µM and the TGI (MCF7 breast) was over 57.9 µM. It also gave a GI50 (NCI-H522 lung) of 8.84 µM, a TGI (NCI-H522 lung) of over 76.9 µM and a GI50 (RXF 393 renal) of 1.43 µM. For the same compound, the TGI (RXF 393 renal) was 9.3 µM, the GI50 (T-47D breast) was 23.3 µM and the TGI (T-47D breast) was over 70.6 µM.
Compound `O=C1/C(=C\c2ccc(Cl)cc2)CN(C(=O)c2ccccc2)C/C1=C\c1ccc(Cl)cc1` has a GI50 (BT-549 breast) of 2.89 µM, a TGI (BT-549 breast) of 7.17 µM and a GI50 (KM12 colon) of 1.2 µM. For the same compound, the TGI (KM12 colon) was 3.18 µM, the GI50 (MCF7 breast) was 0.437 µM and the TGI (MCF7 breast) was 3.09 µM. It also gave a GI50 (NCI-H522 lung) of 3.22 µM, a TGI (NCI-H522 lung) of 10.8 µM and a GI50 (RXF 393 renal) of 1.68 µM. For the same compound, the TGI (RXF 393 renal) was 3.26 µM, the GI50 (T-47D breast) was 4.33 µM and the TGI (T-47D breast) was over 100 µM.
Work on `Cn1cnc([N+](=O)[O-])c1Sc1nccn1-c1ccccc1` yielded a TGI (DMS 114 small cell lung) of 91.2 µM, a TGI (DMS 273 small cell lung) of over 100 µM and a TGI (HOP-18 NSCLC) of 54.3 µM. For the same compound, the TGI (KM12 colon) was over 100 µM, the TGI (M19-MEL melanoma) was over 100 µM and the TGI (NCI-H522 lung) was 24.5 µM. For the same compound, the TGI (SNB-78 CNS) was over 100 µM and the TGI (XF 498 CNS) was over 100 µM.
`CCOC(=O)Cc1csc(Nc2nc(O)c(C3=c4ccccc4=NC3=O)s2)n1` gave a GI50 (BT-549 breast) of 92.3 µM, a TGI (BT-549 breast) of over 100 µM and a GI50 (KM12 colon) of 20.4 µM. It also gave a TGI (KM12 colon) of 68.9 µM, a GI50 (MCF7 breast) of 85.5 µM and a TGI (MCF7 breast) of over 100 µM. The GI50 (NCI-H522 lung) was 27.2 µM, the TGI (NCI-H522 lung) was 97.6 µM and the GI50 (RXF 393 renal) was 41.3 µM. It also gave a TGI (RXF 393 renal) of over 100 µM, a GI50 (T-47D breast) of 54.4 µM and a TGI (T-47D breast) of over 100 µM.
In the case of `CCOC(=O)Nc1nc(-c2ccccc2)c(C)s1`, the TGI (BT-549 breast) is reported as over 100 µM, the TGI (KM12 colon) is reported as over 100 µM and the TGI (MCF7 breast) is reported as over 100 µM. It also gave a TGI (NCI-H522 lung) of over 100 µM, a TGI (RXF 393 renal) of over 100 µM and a TGI (T-47D breast) of over 100 µM.
Compound `NS(=O)(=O)c1ccc(N=Nc2c(O)[nH]c3cccc(CCc4ccncc4)c23)cc1` has a GI50 (BT-549 breast) of over 25 µM, a TGI (BT-549 breast) of over 25 µM and a GI50 (KM12 colon) of over 25 µM. For the same compound, the TGI (KM12 colon) was over 25 µM, the GI50 (MCF7 breast) was over 25 µM and the TGI (MCF7 breast) was over 25 µM. For the same compound, the GI50 (NCI-H522 lung) was over 25 µM, the TGI (NCI-H522 lung) was over 25 µM and the GI50 (RXF 393 renal) was over 25 µM. It also gave a TGI (RXF 393 renal) of over 25 µM, a GI50 (T-47D breast) of over 25 µM and a TGI (T-47D breast) of over 25 µM.
`Cc1cc2c(=O)cc(-c3ccc(Cl)c(Cl)c3)oc2c(C(=O)O)c1C` gave a TGI (DMS 114 small cell lung) of over 100 µM, a TGI (HOP-18 NSCLC) of over 100 µM and a TGI (KM12 colon) of over 100 µM. For the same compound, the TGI (LXFL 529 NSCLC) was over 100 µM, the TGI (M19-MEL melanoma) was over 100 µM and the TGI (NCI-H522 lung) was over 100 µM. It also gave a TGI (RXF 393 renal) of over 100 µM, a TGI (SNB-78 CNS) of over 100 µM and a TGI (XF 498 CNS) of over 100 µM.
`CN1C(=O)CNS1(=O)=O` was tested, and the TGI (DMS 114 small cell lung) was over 100 µM, the TGI (DMS 273 small cell lung) was over 100 µM and the TGI (KM12 colon) was over 100 µM. For the same compound, the TGI (LXFL 529 NSCLC) was over 100 µM, the TGI (RXF 393 renal) was over 100 µM and the TGI (RXF-631 renal) was over 100 µM. The TGI (SNB-78 CNS) was over 100 µM and the TGI (XF 498 CNS) was over 100 µM.
For `CCOc1ccc(N=C2NC(=O)C(CC(=O)Nc3ccc(Cl)cc3Cl)S2)cc1` (centres undefined), the TGI (DMS 114 small cell lung) was over 100 µM, the TGI (DMS 273 small cell lung) was over 100 µM and the TGI (KM12 colon) was over 100 µM. For the same compound, the TGI (LXFL 529 NSCLC) was over 100 µM, the TGI (M19-MEL melanoma) was over 100 µM and the TGI (RXF-631 renal) was over 100 µM. For the same compound, the TGI (SNB-78 CNS) was over 100 µM and the TGI (XF 498 CNS) was over 100 µM.
